Measurements as given in PMC10892818, “An Antiherpesviral Host-Directed Strategy Based on CDK7 Covalently Binding Drugs: Target-Selective, Picomolar-Dose, Cross-Virus Reactivity” (Pharmaceutics, 2024).
Read-outs that look alike come from different tables or passages of the source.

How the values were obtained:
[1] = tested on: HCMV UL97-C603W; parameters: method as in PMID 31940472; key: R-high, high-level drug resistance; R-int, intermediate-level drug resistance; R-low, low-level drug resistance; S, drug sensitivity; conditions: cited from earlier work
[2] = tested on: HCMV UL97-T409M; parameters: method as in PMID 31940472; key: R-high, high-level drug resistance; R-int, intermediate-level drug resistance; R-low, low-level drug resistance; S, drug sensitivity; conditions: cited from earlier work
[3] = tested on: HCMV UL97-C480F; parameters: method as in PMID 31940472; key: R-high, high-level drug resistance; R-int, intermediate-level drug resistance; R-low, low-level drug resistance; S, drug sensitivity; conditions: cited from earlier work
[4] = tested on: HCMV UL97-M460I; parameters: method as in PMID 31940472; key: R-high, high-level drug resistance; R-int, intermediate-level drug resistance; R-low, low-level drug resistance; S, drug sensitivity; conditions: cited from earlier work
[5] = tested on: HCMV UL97-M460I; assay: HCMV reporter-based antiviral assay, drug-resistant mutant; format: cell-based, human cytomegalovirus; conditions: Human betaherpesvirus 5, AD169, read-out: Measured EC50 ref. drugs UL97-M460I
Experimental: For the infection experiments, stocks of the following recombinant, reporter protein-expressing viruses (GFP or YFP (i.e., green or yellow fluorescent protein, respectively)) were propagated (in permissive cells), determined in their infectious titers performing the respective reporter assays, stored by aliquots at −80 °C, and used for the assessment of antiviral drug activities: human cytomegalovirus HCMV AD169-GFP (HFFs); murine cytomegalovirus MCMV C3X-GFP (MEFs); guinea pig cytomegalovirus GPCMV v403-GFP (GPEFs); human herpesvirus type 6A HHV-6A U1102-GFP (J-Jhan); herpes simplex virus type 1 HSV-1 166v VP22-GFP (HFFs); varicella zoster virus VZV Oka-GFP (HFFs); Epstein-Barr virus EBV Akata-GFP (Akata-BX1-GFP carrier cells; kindly provided by Lindsey Hutt-Fletcher and Rona Scott, Dept. Microbiol. Immunol., LSUHSC Univ., Shreveport, LA, USA); and Kaposi’s sarcoma-associated herpesvirus KSHV rKSHV.219-GFP/RFP (in iSLK.219 carrier cells).
For HCMV AD169-GFP infection, the replication assay was based on a seeding of 225,000 HFFs or 13,500 HFFs in 12 well or 96 well plates, respectively, which were then inoculated with HCMV AD169-GFP [55] at an MOI of 0.25 GFP-FU/mL/7 d for a 90 min period of inoculum–cell adsorption, followed by a medium refreshment including the immediate addition of antiviral compounds. At 7 d p.i., the infected HFFs were either directly fixed with 10% formalin for 20 min at 4 °C (when used for infection in the 96 well format) or lysed and transferred to 96 well plates (when used for infection in the 12 well format) so that the reporter of viral replication could be quantified by GFP fluorometry using a Perkin Elmer Victor X4 Multimode Plate Reader (Perkin Elmer, Waltham, MA, USA).
Due to the fact that the HCMV-encoded protein kinase pUL97 represents a functional and structural ortholog of the host CDKs (vCDK/pUL97), the viral mutants of ORF-UL97 were assessed for sensitivity against CDK7 inhibitors.

[6] = tested on: HCMV UL97-C592G; parameters: method as in PMID 31940472; key: R-high, high-level drug resistance; R-int, intermediate-level drug resistance; R-low, low-level drug resistance; S, drug sensitivity; conditions: cited from earlier work
[7] = tested on: HCMV UL97-F342S; parameters: method as in PMID 31940472; key: R-high, high-level drug resistance; R-int, intermediate-level drug resistance; R-low, low-level drug resistance; S, drug sensitivity; conditions: (for F342Y); cited from earlier work
[8] = tested on: HCMV UL97-L397R; parameters: method as in PMID 31940472; key: R-high, high-level drug resistance; R-int, intermediate-level drug resistance; R-low, low-level drug resistance; S, drug sensitivity; conditions: cited from earlier work
[9] = tested on: VZV Oka-GFP; assay: microbe, parasite or virus in culture; format: cell-based, varicella zoster virus; conditions: for EC50: Human alphaherpesvirus 3, 96 h
From the text: The virus recombinants VZV Oka-GFP and rKSHV.219-GFP/RFP were used for the infection of HFFs (virus stock VZV Oka-GFP applied as a cell-bound inoculum as described before) or were continuously passaged in iSLK.219 carrier cells, respectively (Figure 1). The conditions of the GFP/RFP-based assays were adapted to both the 96 well (Figure 1A,B) and 12 well formats, and details including the assessment of antiviral reference drugs are given (Figure 1C,D).
The virus recombinants VZV Oka-GFP and rKSHV.219-GFP/RFP were used for the infection of HFFs (VZV) or were continuously passaged in iSLK.219 carrier cells (KSHV), respectively, and cell viability was determined by NRA performed with uninfected HFFs or uninduced iSLK.219 cells, respectively. (A,B) Schematic depiction of the assay systems performed in a 96 well plate format. […] For the VZV-GFP system, virus stock VZV Oka-GFP was applied as a cell-bound infectious inoculum. After a 90 min period of inoculum adsorption to the cell surfaces, antiviral compounds were added to the culture media at serial dilutions (DMSO served as a solvent control for drug treatment of infected cells, while mock-infected cells served as a negative control). For the KSHV-GFP/RFP system, iSLK.219 cell lytic replication of KSHV (RFP reporter signal) was induced by the addition of 0.05 or 0.5 µg/mL doxycycline (dox) to the culture media. Cultivated dox-induced iSLK.219 cells were treated with antiviral compounds added at serial dilutions (DMSO served as a positive infection solvent control, while dox-untreated mock cells served as a negative control). HFFs or iSLK.219 cells were harvested at 4 d p.i. or 1 d after treatment, respectively, fixed by a 10 min incubation with 10% formalin, washed with PBS, and used for quantitation of the GFP or RFP reporter signal by PicoMD counting (ImageXpress® Pico device, Molecular Devices LLC, San Jose, CA, USA), with data evaluation using CellReporterXpress® software (version 2.9.3.1183, Molecular Devices LLC) as described earlier in [63]. (C) The antiviral activity of the reference drugs was determined with the VZV-GFP system in the 96 well format. EC50 values refer to measurements in quadruplicate, and the mean values ± SD of two experimental replicates are given. (D) The antiviral activity of the reference drugs was determined with the KSHV-GFP/RFP system in the 96 well format. EC50 values refer to measurements in triplicate, and the mean values ± SD are given for each of the two depicted experimental replicates.

[10] = read-out: VZV EC50 (first experimental replicate)
[11] = read-out: VZV EC50 (second experimental replicate)

| SMILES | Reported phenotype UL97-C603W [1] | Reported phenotype UL97-T409M [2] | Reported phenotype UL97-C480F [3] | Reported phenotype UL97-M460I [4] | EC50 [5] | Reported phenotype UL97-C592G [6] | Reported phenotype UL97-F342S [7] | Reported phenotype UL97-L397R [8] | SI (VZV-GFP system) ([9]; 96 well format) | EC50 [9, 10] | EC50 [9, 11] |
| --- | --- | --- | --- | --- | --- | --- | --- | --- | --- | --- | --- |
| Nc1ccn(C[C@@H](CO)OCP(=O)(O)O)c(=O)n1 [CDV, cidofovir] | S | S | S | S | 70 nM | S | S | S | > 323 | 300 ± 100 nM | 300 ± 200 nM |
| Nc1nc(O)c2ncn(COC(CO)CO)c2n1 [GCV, ganciclovir] | R-high | R-low | R-int | R-high | 9240 ± 3300 nM | R-int | R-high | S |  | 1000 ± 800 nM | 2900 ± 2700 nM |
